In patent US7442532B2, “Essential fungal CaYLR100w polypeptides, and methods of use” (Bristol-Myers Squibb Company, priority 2003, dated 2008):
Converted amounts (≈) assume the structure as drawn.

Experiments:
[1] = system: MET3P-ERG1 construct; test: Sensitivity of the MET3P-ERG1 construct to antifungal drugs (MICs, 96-well format plate); type: cell-based, Candida albicans; conditions: for MIC: Candida albicans, at 20 hrs, MET3P-ERG1 construct; for sensitivity to the drug altered by the presence of methionine: drugs not known to be inhibitors of the CaERG1 product
Procedure: In order to assess whether cells containing the ERG1−MET promoter construct would display hypersensitivity to terbinafine upon the addition of methionine in comparison to cells for which no methionine was added, cells were grown in the 384 well-plate as described above. A final concentration of 0.05 mM methinone was added to wells within one plate of cells and a control plate, in which SD+His broth was added in lieu of methionine was added to a second plate. 8 μl of various concentrations of terbinafine in 10.26% DMSO was added to both the control and test plates. The concentrations of terbinafine added to different wells ranged from 163 μg/ml to 0.02 μg/ml. […] After the addition of this inhibitor, both the control and experimental plates were incubated at 35° C. After 18 hours of incubation, the OD readings were taken of the plates to measure cell growth (595 nm). […] Increased sensitivity of cells containing the ERG1−MET3 was confirmed in a separate experiment using a 96-well format plate.
Furthermore, results of additional experiments conducted with the drugs sordarin and fluconazole which are not known to be inhibitors of the CaERG1 polynucleotide product confirm that sensitivity to these drugs is not altered by the presence of methionine.

[2] = system: ergosterol biosynthetic pathway in strain caerg1Δ/PMET3-CaERG1; test: Incorporation of labeled acetate into sterols (TLC, scintillation counting), control strain; type: cell-based, Candida albicans; conditions: FIG. 22A, lanes 1 and 2; 90 minute induction period
Procedure: (§1) Overnight cultures were diluted into fresh SD+histidine (His) broth and grown at 30° C. until logarithmic growth was established. Cultures were harvested by centrifugation. Cells were then separated into tubes at a final density of 0.25 OD600 containing either fresh SD+His broth or SD+His broth containing 5 mM methionine (Met) and 2.5 mM cysteine (Cys). At the end of either a 0.75, 1.5, 3 or 4.5 hour incubation period, the OD600 values of each tube were measured and cultures were adjusted to a density of 0.25 OD600 units per ml (2 mls per tube). Cultures were then pulsed with 2 μCi/tube of [^3H]-acetic acid for 60 minutes.
(§2) At the end of the labeling period, cells were pelleted and rinsed 1× with medium. The washed pellet was resuspended with 1 ml of 0.1 N HCl, transferred to glass screw-capped tubes, and incubated for 5 minutes at 85° C. […]
(§3) Dried samples were disolved in petroleum ether and spotted onto a 20 cm×20 cm silica gel 60 TLC plate. […] The location of radiolabeled spots on the TLC plate was determined by matching the exposed spots on the autoradiogram.
(§4) In order to quantitate the radioactivity associated with the ergosterol pathway products, the silica gel corresponding to the exposed spots was excised from the plate and mixed with 0.5 ml of water, then mixed with 5 mls of scintillation cocktail prior to scintillation counting. […]

[3] = system: MET3 promoter-CaERG1 cells; test: Drug hypersensitivity whole cell assay, 384-well plate: MET3 promoter-CaERG1 cells with and without methionine; type: cell-based, Candida albicans; conditions: 0.05 mM methionine, 18 hours at 35° C, OD 595 nm, FIG. 10
Procedure: In order to determine if essential polynucleotide products could be reduced in fungal cells resulting in drug hypersensitivity, a high throughput whole cell assay was designed. The known C. albicans essential polynucleotide corresponding ERG1 polynucleotide in S. cervisiae was tested. CaERG 1 codes for squaline epoxidase and is known to be inhibited by terbinafine. The first polynucleotide copy was disrupted as described above and the second polynucleotide copy was modified by promoter swapping with MET3 promoter, also as described above.
The optimal cell density needed to control cell growth in a 384-well plate within the log phase after 18 hours incubation at 35° C. was first determined. […] At different time intervals, the plate was withdrawn from the incubator and the cell growth was determined by reading absorbance at 590 nm on a Perkin Elmer 7000 machine.
In order to assess whether cells containing the ERG1−MET promoter construct would display hypersensitivity to terbinafine upon the addition of methionine in comparison to cells for which no methionine was added, cells were grown in the 384 well-plate as described above. […] After 18 hours of incubation, the OD readings were taken of the plates to measure cell growth (595 nm). […]

[4] = system: ergosterol biosynthetic pathway in strain fcg5Δ/PMET3-FCG5; test: Incorporation of labeled acetate into sterols (TLC, scintillation counting), test strain; type: cell-based, Candida albicans; conditions: FIG. 22B; majority of the counts trapped in squalene
Procedure: as §1, §2, §3, §4

[5] = system: MET3P-ERG1 construct; conditions: 0.5 mM methionine; growth monitored between 16 and 24 hours, OD 595 nm; FIG. 9
Procedure: Cells were diluted from these cultures to 757,002 cfu/ml in SD+His medium. 35 μl of the diluted cells were dispensed into wells of a 384-well plate containing 8 μl of 10.26% DMSO. […] Cell growth was monitored between 16 and 24 hours by reading the optical density at 595 nm.

Structure (SMILES) | MIC ([1]; absence of methionine) | MIC ([1]; presence of methionine) | sensitivity to the drug altered by the presence of methionine [1] | effect on ergosterol biosynthesis (TLC autoradiogram) [2] | increase in sensitivity in the presence of methionine comparing to the no methionine control [3] | increase in sensitivity when promoter activity was down regulated by the presence of methionine ([1]; 96-well format plate, Table 7) | effect on incorporation of radiolabelled acetate into ergosterol (TLC autoradiogram) [4] | reduction of cell growth [5]
OC(Cn1cncn1)(Cn1cncn1)c1ccc(F)cc1F [Fluconazole] | 1 µg/mL (≈ 3.27 µM) | 1 µg/mL | not altered |  |  |  |  | 
CN(C/C=C/C#CC(C)(C)C)Cc1cccc2ccccc12 [Terbinafine] |  | 0.5 µg/mL |  | a block in ergosterol biosynthesis at squalene | 4-8 fold | 16-32 fold | blocked the incorporation of radiolabelled acetate into ergosterol | 
CO[C@H]1[C@@H](O)[C@H](O)[C@H](OC[C@@]23C[C@@H]4[C@H](C)CC[C@H]4[C@@]4(C=O)CC2C=C(C(C)C)[C@@]34C(=O)O)O[C@@H]1C [Sordarin] | 0.5 µg/mL (≈ 1.02 µM) | 0.5 µg/mL | not altered |  |  |  |  | 
CSCC[C@H](N)C(=O)O [methionine] |  |  |  |  |  |  |  | approximately 50%
